Results from patent US20240270821A1, “GIP/GLP1/GCG TRI-RECEPTOR AGONISTS AND USES THEREOF” (priority 2023, published 2024).
Read-outs that look alike come from different tables or passages of the source. Starred links: 1 amine or outer side, 2 acyl side, 3 side chain; linkers in the order of their positions; H or OH if unused. Non-standard residues stand in square brackets, D forms with d. Residues, ends and D or L forms follow the SMILES beside them. Groups on a side chain read outwards from the residue. No end group written: not given here. *: point of attachment. C20 diacid = O=C(O)CCCCCCCCCCCCCCCCCCC(=O)*; C18 diacid = O=C(O)CCCCCCCCCCCCCCCCC(=O)*; Phe(4-CN) = N#Cc1ccc(C[C@H](N)C(=O)O)cc1; αMePhe(2-F) = C[C@](N)(Cc1ccccc1F)C(=O)O; γGlu = O=C(O)[C@H](CCC(=O)[*:2])N[*:1]; αMe4Pal = C[C@](N)(Cc1ccncc1)C(=O)O; αMeY = C[C@](N)(Cc1ccc(O)cc1)C(=O)O; 4Pal = N[C@@H](Cc1ccncc1)C(=O)O; αMeL = CC(C)C[C@](C)(N)C(=O)O; αMeS = C[C@](N)(CO)C(=O)O; Orn = NCCC[C@H](N)C(=O)O; AEEA = NCCOCCOCC(=O)O; Aib = CC(C)(N)C(=O)O

Legend:
Type in all cases: cell-based
hGIPR [1] = target: T1, hGIPR (Homo sapiens, UniProt P48546); test: Functional cAMP activation in the presence of 0.1% casein (no HSA); conditions: read-out: Relative cAMP EC50, hGIPR;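 further: intracellular cAMP rise after 30 min at 37 °C read by HTRF against a standard curve, scaled between buffer alone (0%) and top control ligand concentration (100%), four-parameter fit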
T1 sequence (P48546 22-466): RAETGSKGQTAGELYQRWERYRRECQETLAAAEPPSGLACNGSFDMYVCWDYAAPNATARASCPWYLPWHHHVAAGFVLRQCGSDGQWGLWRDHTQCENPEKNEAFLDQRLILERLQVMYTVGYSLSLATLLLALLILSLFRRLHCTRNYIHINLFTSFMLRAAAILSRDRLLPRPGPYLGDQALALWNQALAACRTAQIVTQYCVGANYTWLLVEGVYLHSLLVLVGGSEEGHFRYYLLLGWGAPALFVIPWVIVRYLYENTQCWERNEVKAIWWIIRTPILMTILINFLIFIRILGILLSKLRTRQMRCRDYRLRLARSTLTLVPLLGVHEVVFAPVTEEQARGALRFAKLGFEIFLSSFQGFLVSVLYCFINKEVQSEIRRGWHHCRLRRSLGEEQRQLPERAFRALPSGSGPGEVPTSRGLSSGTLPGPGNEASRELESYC

hGcgR = hGcgR (Homo sapiens, UniProt P47871); test: as above; conditions: read-out: Relative cAMP EC50, hGcgR;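 further: intracellular cAMP rise after 30 min at 37 °C, read by HTRF against a cAMP standard curve, scaled from buffer only (0%) to maximal control ligand response (100%)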
Sequence of hGcgR (P47871 26-477): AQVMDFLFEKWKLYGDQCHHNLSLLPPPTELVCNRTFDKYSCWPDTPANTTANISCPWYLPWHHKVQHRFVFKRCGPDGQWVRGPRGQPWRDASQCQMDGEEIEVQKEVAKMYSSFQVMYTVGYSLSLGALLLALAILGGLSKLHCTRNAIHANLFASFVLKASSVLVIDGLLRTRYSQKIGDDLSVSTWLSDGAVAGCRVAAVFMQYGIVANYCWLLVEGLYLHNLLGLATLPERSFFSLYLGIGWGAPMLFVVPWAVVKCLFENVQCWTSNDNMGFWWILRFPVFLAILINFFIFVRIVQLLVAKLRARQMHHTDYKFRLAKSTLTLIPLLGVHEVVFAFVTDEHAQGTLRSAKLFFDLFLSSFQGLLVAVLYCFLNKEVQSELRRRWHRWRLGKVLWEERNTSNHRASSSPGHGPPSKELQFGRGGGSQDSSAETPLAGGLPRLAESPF

hGLP-1R [2] = target: T2, hGLP-1R (Homo sapiens, UniProt P43220); test: as above; conditions: read-out: Relative cAMP EC50, hGLP-1R;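 further: intracellular cAMP rise after 30 min at 37 °C read by HTRF, normalized between buffer only (0%) and maximal control ligand (100%), four-parameter variable-slope fit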
T2 sequence (P43220 24-463): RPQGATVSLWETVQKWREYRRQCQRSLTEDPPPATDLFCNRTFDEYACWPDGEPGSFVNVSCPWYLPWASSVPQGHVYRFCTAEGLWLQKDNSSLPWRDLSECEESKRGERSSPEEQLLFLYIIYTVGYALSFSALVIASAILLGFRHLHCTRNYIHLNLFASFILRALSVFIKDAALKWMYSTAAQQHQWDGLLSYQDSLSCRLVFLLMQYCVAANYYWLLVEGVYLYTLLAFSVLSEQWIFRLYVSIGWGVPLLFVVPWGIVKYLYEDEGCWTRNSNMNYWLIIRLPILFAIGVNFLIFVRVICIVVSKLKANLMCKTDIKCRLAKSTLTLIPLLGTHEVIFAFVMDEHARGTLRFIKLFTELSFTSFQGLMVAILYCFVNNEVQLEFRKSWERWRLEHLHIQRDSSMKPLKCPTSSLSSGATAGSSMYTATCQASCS

hGLP-1R [3] = target: T2, hGLP-1R; test: Functional cAMP activity in the presence of 1% HSA; conditions: read-out: cAMP Rel EC50, hGLP-1R
hGIPR [4] = target: T1, hGIPR; test: Functional cAMP activity in the presence of 1% HSA; conditions: read-out: cAMP Rel EC50, hGIPR
human GcgR = human GcgR (Homo sapiens, UniProt P47871); test: Functional cAMP activity in the presence of 1% HSA; conditions: read-out: cAMP Rel EC50, hGcgR
Sequence of human GcgR (P47871 26-477): as the sequence (P47871 26-477) above

[5] = in the presence of 0.1% casein (no HSA), geometric mean
[6] = in the presence of 0.1% casein (no HSA), geometric mean of relative EC50
[7] = HEK-293 clonal cell line, 1% HSA, geometric mean of relative EC50
[8] = 0.1% casein, no HSA, geometric mean

| Molecule | EC50 (hGLP-1R [3]) [nM] | EC50 (hGIPR [4]) [nM] | EC50 (human GcgR) [nM] | EC50 (hGIPR [1]; [5]) [nM] | EC50 (hGcgR; [5]) [nM] | EC50 (hGLP-1R [2]; [5]) [nM] | also measured |
| --- | --- | --- | --- | --- | --- | --- | --- |
| CC[C@H](C)[C@H](NC(=O)[C@H](Cc1ccccc1)NC(=O)[C@H](C)NC(=O)C(C)(C)NC(=O)[C@H](CCC(N)=O)NC(=O)[C@H](C)NC(=O)[C@H](CCCCNC(=O)CC[C@H](NC(=O)CC[C@H](NC(=O)CCCCCCCCCCCCCCCCC(=O)O)C(=O)O)C(=O)O)NC(=O)[C@H](CCCN)NC(=O)[C@H](CC(=O)O)NC(=O)[C@H](CC(C)C)NC(=O)[C@](C)(CC(C)C)NC(=O)[C@@H](NC(=O)[C@H](CO)NC(=O)[C@H](Cc1ccncc1)NC(=O)[C@H](CC(=O)O)NC(=O)[C@H](CO)NC(=O)[C@@H](NC(=O)[C@](C)(Cc1ccccc1F)NC(=O)[C@@H](NC(=O)CNC(=O)[C@H](CCC(N)=O)NC(=O)C(C)(C)NC(=O)[C@@H](N)Cc1ccc(O)cc1)[C@@H](C)O)[C@@H](C)O)[C@@H](C)CC)C(=O)N[C@@H](CCC(=O)O)C(=O)N[C@@H](Cc1ccc(O)cc1)C(=O)N[C@@H](CC(C)C)C(=O)N[C@@H](CCC(=O)O)C(=O)N[C@@H](CCC(=O)O)C(=O)NCC(=O)NCC(=O)N1CCC[C@H]1C(=O)N[C@@H](CO)C(=O)N[C@@H](CO)C(=O)NCC(=O)N[C@@H](C)C(=O)N1CCC[C@H]1C(=O)N1CCC[C@H]1C(=O)N1CCC[C@H]1C(=O)N[C@@H](CO)C(N)=O [Example 441] (H-Y[Aib]QGT[αMePhe(2-F)]TSD[4Pal]SI[αMeL]LD[Orn]K([γGlu-γGlu-C18 diacid])AQ[Aib]AFIEYLEEGGPSSGAPPPS-NH2) | 24.7 | 1.96 | 855 | – | – | – | EC50 (hGIPR [1]): 0.0239 nM; EC50 (hGcgR): 8 nM; EC50 (hGLP-1R [2]): 0.365 nM |
| CC[C@H](C)[C@H](NC(=O)[C@H](Cc1ccccc1)NC(=O)[C@H](C)NC(=O)C(C)(C)NC(=O)[C@H](CCC(N)=O)NC(=O)[C@H](C)NC(=O)[C@H](CCCCNC(=O)COCCOCCNC(=O)CC[C@H](NC(=O)CCCCCCCCCCCCCCCCC(=O)O)C(=O)O)NC(=O)[C@H](CCCCN)NC(=O)[C@H](CC(=O)O)NC(=O)[C@H](CC(C)C)NC(=O)[C@](C)(CC(C)C)NC(=O)[C@@H](NC(=O)[C@H](CO)NC(=O)[C@H](Cc1ccncc1)NC(=O)[C@H](CC(=O)O)NC(=O)[C@H](CO)NC(=O)[C@@H](NC(=O)[C@](C)(Cc1ccccc1F)NC(=O)[C@@H](NC(=O)CNC(=O)[C@H](CCC(N)=O)NC(=O)C(C)(C)NC(=O)[C@@H](N)Cc1ccc(O)cc1)[C@@H](C)O)[C@@H](C)O)[C@@H](C)CC)C(=O)N[C@@H](CCC(=O)O)C(=O)N[C@@H](Cc1ccc(O)cc1)C(=O)N[C@@H](CC(C)C)C(=O)N[C@@H](CCC(=O)O)C(=O)N[C@@H](CCC(=O)O)C(=O)NCC(=O)NCC(=O)N1CCC[C@H]1C(=O)N[C@@H](CO)C(=O)N[C@@H](CO)C(=O)NCC(=O)N[C@@H](C)C(=O)N1CCC[C@H]1C(=O)N1CCC[C@H]1C(=O)N1CCC[C@H]1C(=O)N[C@@H](CCC(=O)O)C(N)=O [Example 445] (H-Y[Aib]QGT[αMePhe(2-F)]TSD[4Pal]SI[αMeL]LDKK([AEEA-γGlu-C18 diacid])AQ[Aib]AFIEYLEEGGPSSGAPPPE-NH2) | 23.2 | 2.41 | 448 | – | – | – | EC50 (hGIPR [1]): 0.0206 nM; EC50 (hGcgR): 10.1 nM; EC50 (hGLP-1R [2]): 0.731 nM |
| H-Y[Aib]QGTFTSD[4Pal]SQ[αMeL]LD[Orn]K([AEEA-γGlu-C18 diacid])AQ[αMe4Pal]QFIE[αMeY]LIA[Aib]GPSSGEPPPSGSEE-NH2 [Example 1100] | 77.2 | 9.04 | 577 | 0.0694 | 5.28 | 0.514 | – |
| Y[Aib]QGT[αMePhe(2-F)]TSD[4Pal]SI[αMeL]LD[Orn]K([AEEA-γGlu-C18 diacid])AQ[αMe4Pal][Orn]FI[dE][αMeY]LIEGGPSSGEPPPEGEG[dE]-NH2 [Example 692] | – | – | – | – | – | – | EC50 (hGIPR [1]; [6]): 0.0106 nM; EC50 (hGcgR; [6]): 2.14 nM; EC50 (hGLP-1R [2]; [6]): 0.252 nM; EC50 (hGLP-1R [3]; [7]): 25.2 nM; EC50 (hGIPR [4]; [7]): 1.25 nM; EC50 (human GcgR; [7]): 380 nM |
| H-Y[Aib]QGT[αMePhe(2-F)]TSD[4Pal]SI[αMeL]LD[Orn]K([γGlu-γGlu-C18 diacid])AQ[αMe4Pal]EFI[dE][αMeY]LQEGGPSSGEPPPSGS-NH2 [Example 649] | 62.9 | 0.76 | 669 | – | – | – | EC50 (hGIPR [1]): 0.0221 nM; EC50 (hGcgR): 21.2 nM; EC50 (hGLP-1R [2]): 1.35 nM |
| H-Y[Aib]QGTFTSD[4Pal]SQ[αMeL]LD[Orn]K([γGlu-γGlu-C18 diacid])AQ[αMe4Pal]AFIE[αMeY]LIEGGPSSGAPPPSGSEE-NH2 [Example 1043] | 268 | 44.9 | 2240 | 0.282 | 17.1 | 1.52 | – |
| Y[Aib]QGT[αMePhe(2-F)]TSD[4Pal][αMeS]ILLD[Orn]K([γGlu-γGlu-C18 diacid])AQ[Aib][Orn]FI[dE]YLIEGGPSSGEPPPSETE-NH2 [Example 555] | – | – | – | – | – | – | EC50 (hGIPR [1]; [6]): 0.0601 nM; EC50 (hGcgR; [6]): 3.56 nM; EC50 (hGLP-1R [2]; [6]): 0.445 nM; EC50 (hGLP-1R [3]; [7]): 42 nM; EC50 (hGIPR [4]; [7]): 5.31 nM; EC50 (human GcgR; [7]): 274 nM |
| H-Y[Aib]QGT[αMePhe(2-F)]TSD[Phe(4-CN)]SILLDKQAQK([AEEA-γGlu-γGlu-C20 diacid])AFIEYLLEGGPSSGEPPPSEG-NH2 [Example 352] | 407 | 34.1 | 4020 | 0.245 | 16.4 | 0.967 | – |
| H-Y[Aib]QGTFTSDFS[Orn][αMeL]LDKK([AEEA-AEEA-γGlu-C18 diacid])AQ[Aib]AFIEYLLE[Aib]GESSGAPPPSGT-NH2 [Example 180] | 891 | 24 | 1320 | 0.14 | 2.44 | 5.08 | – |
| H-Y[Aib]QGTFTSDFS[Orn][αMeL]LDKK([AEEA-γGlu-C18 diacid])AQ[Aib]AFIEYLLE[Aib]GESSGAPPPSGS-NH2 [Example 240] | 396 | 10.4 | 521 | 0.214 | 2.02 | 3.62 | – |
| H-Y[Aib]QGT[αMePhe(2-F)]TSD[4Pal][αMeS]I[αMeL]LD[Orn]K([γGlu-γGlu-C18 diacid])AQ[αMe4Pal]EFI[dE][αMeY]LIEGGPSSGEPPPSGS-NH2 [Example 715] | 19.7 | 0.51 | 126 | – | – | – | EC50 (hGIPR [1]): 0.00644 nM; EC50 (hGcgR): 1 nM; EC50 (hGLP-1R [2]): 0.267 nM |
| H-Y[Aib]QGTFTSD[4Pal]SQ[αMeL]LDKK([γGlu-γGlu-C18 diacid])AQ[αMe4Pal]AFIEWLIEGGPSSGAPPPSGS-NH2 [Example 872] | 287 | 30.1 | 1890 | 0.205 | 4.18 | 1.01 | – |
| H-Y[Aib]QGT[αMePhe(2-F)]TSD[4Pal][αMeS]I[αMeL]LD[Orn]K([AEEA-γGlu-C18 diacid])AQ[αMe4Pal]EFI[dE][αMeY]LIEGGPSSGAPPPEGGGEE-NH2 [Example 1216] | 66.9 | 0.914 | 225 | – | – | – | EC50 (hGIPR [1]; [8]): 0.00921 nM; EC50 (hGcgR; [8]): 1.83 nM; EC50 (hGLP-1R [2]; [8]): 0.65 nM |
| Y[Aib]QGTFTSDFSK[αMeL]LDKK([AEEA-γGlu-C20 diacid])AQ[Aib]AFIEYLLEGGPSSGEPPPTEG-NH2 [Example 36] | 1360 | 170 | 1330 | 0.482 | 4.32 | 3.57 | – |
| H-Y[Aib]QGT[αMePhe(2-F)]TSD[4Pal][αMeS]I[αMeL]LD[Orn]K([AEEA-γGlu-γGlu-C18 diacid])AQ[αMe4Pal]EFI[dE][αMeY]LIEGGPSSGAPPPSGSE-NH2 [Example 1178] | 39 | 0.544 | 270 | 0.00913 | 3.08 | 0.437 | – |
| H-Y[Aib]QGTFTSD[4Pal]SQ[αMeL]LD[Orn]K([AEEA-γGlu-C18 diacid])AQ[αMe4Pal]AFIE[αMeY]LIA[Aib]GPSSGAPPPSGSEE-NH2 [Example 1110] | 52 | 5.4 | 449 | 0.059 | 5.91 | 0.508 | – |
